Legend:
[1] = tested on: patients with NVAF; assay: Clinical dose-guiding study: stroke/TIA events; assay type: in vivo, human
Experimental: (§1) The tolerability of three different doses of X (20, 40, 60 mg p.o. b.i.d.) was compared with warfarin (aiming for an international normalisation ratio (INR) of 2 to 3) over 3 months' treatment in NVAF patients with moderately to high increased risk for stroke or systemic embolic events.
(§2) This was a multicentre, multinational, randomized, parallel group, dose-guiding study to compare the safety and tolerabilty of X with warfarin in stroke prophylaxis in patients with NVAF.
(§3) Patients were split into four groups: one group receiving 20 mg of X b.i.d, one given 40 (2×20) mg of X b.i.d, and one 60 (3×20) mg of X b.i.d. The fourth group received warfarin (open label, INR aiming for 2.0 to 3.0). All X medication was given double blind (i.e. neither doctor nor patient knew what tablet strength of X was given).
(§4) The duration of treatment was 12 weeks. […] The 40 mg b.i.d. dose was later reduced to 36 mg b.i.d. of X.

[2] = tested on: patients with NVAF; assay: Ongoing open label follow-up trials, 1 year on; assay type: in vivo
Excerpt: The duration of treatment was 12 weeks.

[3] = tested on: patients with NVAF; assay: Clinical dose-guiding study: safety and tolerability (discontinuations, bleeding, adverse events)
Experimental: as §1, §2, §3, §4

[4] = tested on: patients with NVAF; assay: Clinical dose-guiding study: warfarin management (INR by visit); assay type: in vivo, human
[5] = NVAF patients, 20, 40, 60 mg p.o. b.i.d.
Experimental: as §1, §3

[6] = warfarin group, 40 treatment years
[7] = X group, at 60 mg b.i.d., 12 weeks
[8] = X 36 mg b.i.d., 120 treatment years
[9] = X Dose 140 mg (so in the source) b.i.d., 12 weeks

For `CC(=O)CC(c1ccccc1)c1c(O)c2ccccc2oc1=O` (centres unmarked) [Warfarin, warfarin], the TIAs reported ([1]; warfarin group, 12 weeks) was “two”, the “Stroke/TIA event of individual patient” value ([1]; warfarin group, 12 weeks, one line per patient (Pat. 120, 153)) was “TIA” and the TIAs [2, 6] was 2. The fatal strokes [2, 6] was 2, the major life-threatening bleeds [2, 6] was 3 and the “Bleeding Events, category Major” value ([3]; warfarin group, 12 weeks) was 1. For the same compound, the “Bleeding Events, category Minor” value ([3]; warfarin group, 12 weeks) was 2, the “Bleeding Events, category Multiple Minor” value ([3]; warfarin group, 12 weeks) was 1 and the “Bleeding Events, category None (patients)” value (“Bleeding Events … (patients)” for short) ([3]; warfarin group, 12 weeks) was 60. The “Bleeding Events, category Unspecified” value ([3]; warfarin group, 12 weeks) was 3, the “Number of Patients discontinued, reason Adverse Event” value (“Number … reason Adverse Event” for short) ([3]; warfarin group, 12 weeks) was 4 and the “Number of Patients discontinued, reason Calc. CrCl < 40 mL/min” value (“Number … reason Calc. CrCl < 40 mL/min” for short) ([3]; warfarin group, 12 weeks) was 5. The “Number of Patients discontinued, reason Other” value (from here on “Number … reason Other”) ([3]; warfarin group, 12 weeks) was 3, the “Number of Patients discontinued, reason Withdrawn Consent” value ([3]; warfarin group, 12 weeks) was 1 and the “Number of Patients, Total Discontinued” value ([3]; warfarin group, 12 weeks) was 13. For the same compound, the “Bleeding Events, category Major” value ([3]; warfarin group, 12 weeks, listed as warfarin) was “only major bleed (genital tract) and one”, the “Prematurely discont. (percent of patients)” value ([3]; warfarin, INR aim 2.0-3.0, 12 weeks) was “(19%)” and the “Prematurely discont. (number of patients)” value ([3]; warfarin, INR aim 2.0-3.0, 12 weeks, 67 randomised) was 13. The “Patients in INR Range 1.0-1.9 (number)” value ([4]; Visit 1, Week 0, N 62) was 34, the “Patients in INR Range 1.0-1.9 (percent)” value ([4]; Visit 1, Week 0, N 62) was 55% and the “Patients in INR Range 2.0-3.0 (number)” value ([4]; Visit 1, Week 0, N 62) was 21. The “Patients in INR Range 2.0-3.0 (percent)” value ([4]; Visit 1, Week 0, N 62) was 34%, the “Patients in INR Range >3.0 (number)” value ([4]; Visit 1, Week 0, N 62) was 7 and the “Patients in INR Range >3.0 (percent)” value ([4]; Visit 1, Week 0, N 62) was 11%. The “Patients in INR Range 1.0-1.9 (number)” value ([4]; Visit 3, Week 1, N 59) was 22, the “Patients in INR Range 1.0-1.9 (percent)” value ([4]; Visit 3, Week 1, N 59) was 37% and the “Patients in INR Range 2.0-3.0 (number)” value ([4]; Visit 3, Week 1, N 59) was 25. For the same compound, the “Patients in INR Range 2.0-3.0 (percent)” value ([4]; Visit 3, Week 1, N 59) was 42%, the “Patients in INR Range >3.0 (number)” value ([4]; Visit 3, Week 1, N 59) was 12 and the “Patients in INR Range >3.0 (percent)” value ([4]; Visit 3, Week 1, N 59) was 20%. For the same compound, the “Patients in INR Range 1.0-1.9 (number)” value ([4]; Visit 4, Week 2, N 54) was 15, the “Patients in INR Range 1.0-1.9 (percent)” value ([4]; Visit 4, Week 2, N 54) was 28% and the “Patients in INR Range 2.0-3.0 (number)” value ([4]; Visit 4, Week 2, N 54) was 26. For the same compound, the “Patients in INR Range 2.0-3.0 (percent)” value ([4]; Visit 4, Week 2, N 54) was 48%, the “Patients in INR Range >3.0 (number)” value ([4]; Visit 4, Week 2, N 54) was 13 and the “Patients in INR Range >3.0 (percent)” value ([4]; Visit 4, Week 2, N 54) was 24%. For the same compound, the “Patients in INR Range 1.0-1.9 (number)” value ([4]; Visit 5, Week 4, N 51) was 17, the “Patients in INR Range 1.0-1.9 (percent)” value ([4]; Visit 5, Week 4, N 51) was 33% and the “Patients in INR Range 2.0-3.0 (number)” value ([4]; Visit 5, Week 4, N 51) was 22. For the same compound, the “Patients in INR Range 2.0-3.0 (percent)” value ([4]; Visit 5, Week 4, N 51) was 43%, the “Patients in INR Range >3.0 (number)” value ([4]; Visit 5, Week 4, N 51) was 12 and the “Patients in INR Range >3.0 (percent)” value ([4]; Visit 5, Week 4, N 51) was 24%. For the same compound, the “Patients in INR Range 1.0-1.9 (number)” value ([4]; Visit 6, Week 8, N 49) was 15, the “Patients in INR Range 1.0-1.9 (percent)” value ([4]; Visit 6, Week 8, N 49) was 31% and the “Patients in INR Range 2.0-3.0 (number)” value ([4]; Visit 6, Week 8, N 49) was 25. The “Patients in INR Range 2.0-3.0 (percent)” value ([4]; Visit 6, Week 8, N 49) was 51%, the “Patients in INR Range >3.0 (number)” value ([4]; Visit 6, Week 8, N 49) was 9 and the “Patients in INR Range >3.0 (percent)” value ([4]; Visit 6, Week 8, N 49) was 18%. The “Patients in INR Range 1.0-1.9 (number)” value ([4]; Visit 7, Week 12, N 58) was 18, the “Patients in INR Range 1.0-1.9 (percent)” value ([4]; Visit 7, Week 12, N 58) was 31% and the “Patients in INR Range 2.0-3.0 (number)” value ([4]; Visit 7, Week 12, N 58) was 33. The “Patients in INR Range 2.0-3.0 (percent)” value ([4]; Visit 7, Week 12, N 58) was 57%, the “Patients in INR Range >3.0 (number)” value ([4]; Visit 7, Week 12, N 58) was 7 and the “Patients in INR Range >3.0 (percent)” value ([4]; Visit 7, Week 12, N 58) was 12%.
With `CCOC(=O)CN[C@@H](C(=O)N1CC[C@H]1C(=O)NCc1ccc(/C(N)=N\O)cc1)C1CCCCC1` [X, EtO2C—CH2-(R)Cgl-Aze-Pab-OH] the “Stroke/TIA event of individual patient” value ([1]; X 60 mg b.i.d. group, 12 weeks, one line per patient (Pat. 121, 309)) was “Ischemic stroke and TIA”, the stroke rate ([1]; X group, all doses combined, estimated 40 patient years of observation) was 2.5% and the TIA reported [1, 7] was “one”. The ischemic stroke reported [1, 7] was “one”, the TIAs [2, 8] was 2 and the major bleeds [2, 8] was “no major bleeds”. The non-fatal strokes [2, 8] was 2, the “pharmacokinetics, dose dependence” value [5] was “dose proportional” and the “Prematurely discont. (percent of patients)” value ([3]; X 20 mg p.o. b.i.d., 12 weeks) was “(15%)”. The “Prematurely discont. (number of patients)” value ([3]; X 20 mg p.o. b.i.d., 12 weeks, 66 randomised) was 10, the “Prematurely discont. (percent of patients)” value ([3]; X 40 mg p.o. b.i.d., 12 weeks) was “(19%)” and the “Prematurely discont. (number of patients)” value ([3]; X 40 mg p.o. b.i.d., 12 weeks, 64 randomised) was 12. For the same compound, the “onset pattern of bleeding” value ([3]; X 60 mg b.i.d., similar pattern to warfarin) was “occurs early in the treatment period”, the “Prematurely discont. (percent of patients)” value ([3]; X 60 mg p.o. b.i.d., 12 weeks) was “(20%)” and the “Prematurely discont. (number of patients)” value ([3]; X 60 mg p.o. b.i.d., 12 weeks, 60 randomised) was 12. The “Bleeding Events, category Major” value ([3]; X Dose 20 mg b.i.d., 12 weeks) was 0, the “Bleeding Events, category Minor” value ([3]; X Dose 20 mg b.i.d., 12 weeks) was 1 and the “Bleeding Events, category Multiple Minor” value ([3]; X Dose 20 mg b.i.d., 12 weeks) was 2. For the same compound, the “Bleeding Events … (patients)” value ([3]; X Dose 20 mg b.i.d., 12 weeks) was 61, the “Bleeding Events, category Unspecified” value ([3]; X Dose 20 mg b.i.d., 12 weeks) was 2 and the “Number … reason Adverse Event” value ([3]; X Dose 20 mg b.i.d., 12 weeks) was 6. The “Number … reason Calc. CrCl < 40 mL/min” value ([3]; X Dose 20 mg b.i.d., 12 weeks) was 4, the “Number … reason Other” value ([3]; X Dose 20 mg b.i.d., 12 weeks) was 0 and the “Number of Patients, Total Discontinued” value ([3]; X Dose 20 mg b.i.d., 12 weeks) was 10. The “Bleeding Events, category Major” value ([3]; X Dose 40 mg b.i.d., 12 weeks) was 0, the “Bleeding Events, category Minor” value ([3]; X Dose 40 mg b.i.d., 12 weeks) was 0 and the “Bleeding Events, category Multiple Minor” value ([3]; X Dose 40 mg b.i.d., 12 weeks) was 3. The “Bleeding Events … (patients)” value ([3]; X Dose 40 mg b.i.d., 12 weeks) was 57, the “Bleeding Events, category Unspecified” value ([3]; X Dose 40 mg b.i.d., 12 weeks) was 2 and the “Bleeding Events, category Major” value ([3]; X Dose 60 mg b.i.d., 12 weeks) was 0. For the same compound, the “Bleeding Events, category Minor” value ([3]; X Dose 60 mg b.i.d., 12 weeks) was 3, the “Bleeding Events, category Multiple Minor” value ([3]; X Dose 60 mg b.i.d., 12 weeks) was 0 and the “Bleeding Events … (patients)” value ([3]; X Dose 60 mg b.i.d., 12 weeks) was 52. For the same compound, the “Bleeding Events, category Unspecified” value ([3]; X Dose 60 mg b.i.d., 12 weeks) was 4, the “Number … reason Adverse Event” value ([3]; X Dose 60 mg b.i.d., 12 weeks) was 5 and the “Number … reason Calc. CrCl < 40 mL/min” value ([3]; X Dose 60 mg b.i.d., 12 weeks) was 4. For the same compound, the “Number … reason Other” value ([3]; X Dose 60 mg b.i.d., 12 weeks) was 1, the “Number of Patients, Total Discontinued” value ([3]; X Dose 60 mg b.i.d., 12 weeks) was 12 and the “Number … reason Adverse Event” value [3, 9] was 3. For the same compound, the “Number … reason Calc. CrCl < 40 mL/min” value [3, 9] was 5, the “Number … reason Other” value [3, 9] was 1 and the “Number of Patients, Total Discontinued” value [3, 9] was 12. The liver enzyme levels ([3]; a few patients treated with X) was “asymptomatic increases” and the tolerability ([3]; doses of up to 60 mg b.i.d. over 3 months) was “well tolerated”.

Reference: patent US6462021B1, “Use of low molecular weight thrombin inhibitor” (AstraZeneca AB, priority 2000, dated 2002)
